Results as given in patent publication US20040106626A1, “6-Membered unsaturated heterocyclic compounds useful for selective inhibition of the coagulation cascade” (Pharmacia Corporation, priority 2001, published 2004).
Counter-ions that a name gives are not always drawn.

Legend:
Assay type in all cases: biochemical
[1] = molecular target: T1, recombinant soluble tissue factor and recombinant human factor VIIa (TF-VIIa) (Homo sapiens, UniProt P08709); assay: TF-VIIa assay (chromogenic substrate hydrolysis); settings: reported only as less than or greater than 0.1 uM
T1 construct: conversion of coagulation factor VII to VIIa by factor Xa; purchased American Diagnostica, Greenwich CT; host or cells: soluble TF made in house in E. coli
Experimental: In this assay 100 nM recombinant soluble tissue factor and 2 nM recombinant human factor VIIa are added to a 96-well assay plate containing 0.4 mM of the substrate, N-methylsulfonyl-D-phe-gly-arg-p-nitroaniline and either inhibitor or buffer (5 mM CaCl2, 50 mM Tris-HCl, pH 8.0, 100 mM NaCl, 0.1% BSA). […] Percent inhibition of TF-VIIa activity is calculated from OD405 nm value from the experimental and control sample.
(§1) Recombinant human VIIa was purchased from American Diagnostica, Greenwich CT and chromogenic substrate N-methylsulfonyl-D-phe-gly-arg-p-nitroaniline was prepared by American Peptide Company, Inc., Sunnyvale, Calif. Factor Xa was obtained from Enzyme Research Laboratories, South Bend Ind., thrombin from Calbiochem, La Jolla, Calif., and trypsin and L-BAPNA from Sigma, St. Louis Mo.

Human factor Xa = molecular target: T2, Human factor Xa (Homo sapiens, UniProt P00742); assay: Xa assay (chromogenic substrate S-2765); settings: reported only as less than or greater than 30 uM; read-out: Factor Xa (II) IC50
T2 construct: purchased Enzyme Research Laboratories, South Bend Ind
Experimental: Human factor Xa (0.3 nM) and 0.15 mM -a-Benzyloxycarbonyl-D-arginyl-L-glycyl-L-arginine-p-nitroaniline-dihydrochloride (S-2765) are added to a 96-well assay plate containing either inhibitor or buffer (50 mM Tris-HCl, pH 8.0, 100 mM NaCl, 0.1% BSA). The reaction, in a final volume of 100 ul is measured immediately at 405 nm to determine background absorbance. The plate is incubated at room temperature for 60 min, at which time the rate of hydrolysis of the substrate is measured by monitoring the reaction at 405 nm for the release of p-nitroaniline. Percent inhibition of Xa activity is calculated from OD405 nm value from the experimental and control sample.
Recombinant soluble TF, consisting of amino acids 1-219 of the mature protein sequence was expressed in E. coli and purified using a Mono Q Sepharose FPLC. Recombinant human VIIa was purchased from American Diagnostica, Greenwich CT and chromogenic substrate N-methylsulfonyl-D-phe-gly-arg-p-nitroaniline was prepared by American Peptide Company, Inc., Sunnyvale, Calif. Factor Xa was obtained from Enzyme Research Laboratories, South Bend Ind., thrombin from Calbiochem, La Jolla, Calif., and trypsin and L-BAPNA from Sigma, St. Louis Mo. The chromogenic substrates S-2765 and S-2238 were purchased from Chromogenix, Sweden.

Human thrombin = molecular target: T3, Human thrombin (Homo sapiens, UniProt P00734); assay: Thrombin assay (chromogenic substrate); settings: reported only as less than or greater than 30 uM; read-out: Thrombin (II) IC50
T3 construct: converts prothrombin (II) to thrombin (IIa); purchased Calbiochem, La Jolla, Calif
Experimental: Percent inhibition of thrombin activity is calculated from OD405 nm value from the experimental and control sample.
as §1

T1 sequence (P08709 213-466 limits assumed): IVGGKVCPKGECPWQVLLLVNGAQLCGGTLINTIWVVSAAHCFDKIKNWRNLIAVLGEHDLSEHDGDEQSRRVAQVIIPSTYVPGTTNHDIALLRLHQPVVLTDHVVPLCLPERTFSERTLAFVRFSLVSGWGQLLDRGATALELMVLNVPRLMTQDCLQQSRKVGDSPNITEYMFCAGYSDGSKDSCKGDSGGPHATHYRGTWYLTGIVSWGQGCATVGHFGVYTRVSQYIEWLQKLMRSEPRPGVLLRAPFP
T1 sequence (P08709 61-212 limits assumed): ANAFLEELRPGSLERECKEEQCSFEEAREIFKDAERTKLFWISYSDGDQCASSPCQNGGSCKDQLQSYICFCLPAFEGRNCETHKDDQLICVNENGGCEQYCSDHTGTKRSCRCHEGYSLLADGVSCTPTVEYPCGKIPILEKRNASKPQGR
T1 sequence (P13726 33-251 partner limits assumed): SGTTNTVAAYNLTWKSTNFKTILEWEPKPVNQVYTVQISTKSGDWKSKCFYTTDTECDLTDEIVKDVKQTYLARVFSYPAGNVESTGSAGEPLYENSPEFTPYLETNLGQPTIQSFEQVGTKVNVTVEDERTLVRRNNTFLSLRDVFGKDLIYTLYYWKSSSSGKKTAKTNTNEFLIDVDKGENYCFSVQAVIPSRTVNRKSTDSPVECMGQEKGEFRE
T2 sequence (P00742 235-488 limits assumed): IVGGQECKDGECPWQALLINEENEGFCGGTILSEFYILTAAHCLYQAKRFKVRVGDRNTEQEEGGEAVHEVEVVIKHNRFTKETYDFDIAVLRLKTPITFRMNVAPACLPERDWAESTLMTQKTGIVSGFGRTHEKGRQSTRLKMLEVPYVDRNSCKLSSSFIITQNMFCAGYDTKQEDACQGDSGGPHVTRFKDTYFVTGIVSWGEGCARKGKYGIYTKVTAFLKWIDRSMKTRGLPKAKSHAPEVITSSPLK
T2 sequence (P00742 41-179 limits assumed): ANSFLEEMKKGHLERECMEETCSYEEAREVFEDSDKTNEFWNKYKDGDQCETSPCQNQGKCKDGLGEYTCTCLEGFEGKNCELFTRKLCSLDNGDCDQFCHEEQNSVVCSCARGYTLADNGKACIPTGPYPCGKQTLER

| SMILES | IC50 [1] | IC50 (Human factor Xa) | IC50 (Human thrombin) |
| --- | --- | --- | --- |
| COC(=O)c1cc(N)cc(-c2ncc(NC(C)C)c(=O)n2CC(=O)NCc2ccc(C(=N)N)cc2)c1 [Example 1] | < 0.1 µM | > 30 µM | > 30 µM |
| CC(C)Nc1cnc(-c2cc(N)cc(C(=O)O)c2)n(CC(=O)NCc2ccc(C(=N)N)cc2)c1=O [Example 2] | < 0.1 µM | > 30 µM | > 30 µM |
| CC(C)CNC(=O)c1cc(N)cc(-c2cnc(NC(C)C)c(=O)n2CC(=O)NCc2ccc(C(=N)N)cc2)c1 [Example 5] | < 0.1 µM | > 30 µM | < 30 µM |
| CC(C)Nc1ncc(-c2cc(N)cc(C(=O)NCc3cccc(F)c3)c2)n(CC(=O)NCc2ccc(C(=N)N)cc2)c1=O [Example 8] | < 0.1 µM | > 30 µM | > 30 µM |
| CC(C)Nc1ncc(-c2cc(N)cc(C(=O)NC3CCCCCC3)c2)n(CC(=O)NCc2ccc(C(=N)N)cc2)c1=O [Example 9] | < 0.1 µM | > 30 µM | < 30 µM |
| CC(C)Nc1ncc(-c2cc(N)cc(C(=O)NC3CCCC3)c2)n(CC(=O)NCc2ccc(C(=N)N)cc2)c1=O [Example 11] | < 0.1 µM | < 30 µM | < 30 µM |
| CC(C)Nc1ncc(-c2cc(N)cc(C(=O)NC[Si](C)(C)C)c2)n(CC(=O)NCc2ccc(C(=N)N)cc2)c1=O [Example 12] | < 0.1 µM | > 30 µM | > 30 µM |
| CC(C)Nc1ncc(-c2cc(N)cc(C(=O)NC(C)(C)c3ccccc3)c2)n(CC(=O)NCc2ccc(C(=N)N)cc2)c1=O [Example 13] | < 0.1 µM | > 30 µM | < 30 µM |
| COC(=O)c1cc(N)cc(-c2cnc(NC(C)C)c(=O)n2CC(=O)NCc2c(F)c(O)c(C(=N)N)c(F)c2F)c1 [Example 20] | > 0.1 µM | > 30 µM | > 30 µM |
| COC(=O)c1cc(N)cc(-c2cnc(NC(C)C)c(=O)n2CC(=O)NCc2ccc(C(=N)N)cc2)c1 [Example 21, Methyl 3-amino-5-[1-[2-({4-[amino(imino)methyl]benzyl}amino)-2-oxoethyl]-5-(isopropylamino)-6-oxo-1,6-dihydropyrazin-2-yl]benzoate Trifluoroacetate] | < 0.1 µM | > 30 µM | > 30 µM |
| COC(=O)Cc1cc(N)c(OC)c(-c2cnc(NC(C)C)c(=O)n2CC(=O)NCc2ccc(C(=N)N)cc2)c1 [Example 22, Methyl {3-amino-5-[1-[2-({4-[amino(imino)methyl]benzyl}amino)-2-oxoethyl]-5-(isopropylamino)-6-oxo-1,6-dihydropyrazin-2-yl]-4-methoxyphenyl}acetate] | > 0.1 µM | > 30 µM | > 30 µM |
| COc1c(N)cc(CC(=O)O)cc1-c1cnc(NC(C)C)c(=O)n1CC(=O)NCc1ccc(C(=N)N)cc1 [Example 23, {3-Amino-5-[1-[2-({4-[amino(imino)methyl]benzyl}amino)-2-oxoethyl]-5-(isopropylamino)-6-oxo-1,6-dihydropyrazin-2-yl]-4-methoxyphenyl}acetic Acid] | > 0.1 µM | > 30 µM | > 30 µM |
| CC(C)Nc1ncc(-c2cc(N)cc(C(=O)NCc3ccccc3)c2)n(CC(=O)NCc2ccc(C(=N)N)cc2)c1=O [Example 25] | < 0.1 µM | > 30 µM | < 30 µM |
| COCCNC(=O)c1cc(N)cc(-c2cnc(NC(C)C)c(=O)n2CC(=O)NCc2ccc(C(=N)N)cc2)c1 [Example 26, 3-amino-5-[1-[2-({4-[amino(imino)methyl]benzyl}amino)-2-oxoethyl]-5-(isopropylamino)-6-oxo-1,6-dihydropyrazin-2-yl]-N-(2-methoxyethyl)benzamide] | < 0.1 µM | > 30 µM | > 30 µM |
| CC(C)CNC(=O)c1cc(N)cc(-c2cnc(NC(C)C)c(=O)n2CC(=O)NCc2ccc(C(=N)N)cc2)c1 [Example 27] | < 0.1 µM | > 30 µM | > 30 µM |
| CC(C)Nc1ncc(-c2cc(N)cc(C(=O)NCCO)c2)n(CC(=O)NCc2ccc(C(=N)N)cc2)c1=O [Example 30] | > 0.1 µM | > 30 µM | > 30 µM |
| CC(C)Nc1nc(Cl)c(-c2cc(N)ccc2SCc2ccccc2)n(CC(=O)NCc2ccc(C(=N)N)cc2)c1=O [Example 31] | > 0.1 µM | > 30 µM | > 30 µM |
| CC(C)Nc1ncc(-c2cc(N)cc(C(=O)NCC(=O)O)c2)n(CC(=O)NCc2ccc(C(=N)N)cc2)c1=O [Example 32] | > 0.1 µM | > 30 µM | > 30 µM |

| SMILES | IC50 [1] | IC50 (Human factor Xa) | IC50 (Human thrombin) |
| --- | --- | --- | --- |
| CNC(=O)c1cc(N)cc(-c2cnc(NC(C)C)c(=O)n2CC(=O)NCc2ccc(C(=N)N)cc2)c1 [Example 38] | < 0.1 µM | > 30 µM | – |
| COCCNC(=O)c1cc(N)cc(-c2cnc(NC(C)C)c(=O)n2CC(=O)NCc2ccc(C(=N)N)cc2)c1 [Example 39] | < 0.1 µM | > 30 µM | – |
| CC(C)Nc1ncc(-c2cc(N)cc(C(=O)NCCN3CCOCC3)c2)n(CC(=O)NCc2ccc(C(=N)N)cc2)c1=O [Example 40] | < 0.1 µM | > 30 µM | – |
| CC(C)Nc1ncc(-c2cc(N)cc(C(=O)NCCN3CCCC3)c2)n(CC(=O)NCc2ccc(C(=N)N)cc2)c1=O [Example 41] | < 0.1 µM | > 30 µM | – |
| CONC(=O)c1cc(N)cc(-c2cnc(NC(C)C)c(=O)n2CC(=O)NCc2ccc(C(=N)N)cc2)c1 [Example 42] | < 0.1 µM | > 30 µM | – |
| CC(C)Nc1ncc(-c2cc(N)cc(C(=O)NC(C)(CO)CO)c2)n(CC(=O)NCc2ccc(C(=N)N)cc2)c1=O [Example 43] | < 0.1 µM | > 30 µM | – |
| CCOC(=O)c1cc(N)cc(-c2cnc(NC(C)C)c(=O)n2CC(=O)NCc2ccc(C(=N)N)cc2)c1 [Example 44] | < 0.1 µM | > 30 µM | – |
| CC(C)Nc1ncc(-c2cc(N)cc(C(=O)NC(C)(C)CCO)c2)n(CC(=O)NCc2ccc(C(=N)N)cc2)c1=O [Example 45] | < 0.1 µM | > 30 µM | – |
| CC(C)Nc1ncc(-c2cc(N)cc(C(N)=O)c2)n(CC(=O)NCc2ccc(C(=N)N)cc2)c1=O [Example 47] | < 0.1 µM | > 30 µM | – |
| CCCCN(CCCC)c1cc(N)cc(-c2cnc(NC(C)C)c(=O)n2CC(=O)NCc2ccc(C(=N)N)cc2)c1 [Example 149] | > 0.1 µM | – | – |
| CC(C)Nc1ncc(-c2cc(N)cc(NC(=O)C3CCNCC3)c2)n(CC(=O)NCc2ccc(C(=N)N)cc2)c1=O [Example 150] | < 0.1 µM | – | – |
| CC(C)Nc1ncc(-c2cc(N)cc(NC(=O)C3CCCNC3)c2)n(CC(=O)NCc2ccc(C(=N)N)cc2)c1=O (stereo not drawn) [Example 151] | < 0.1 µM | – | – |
| CC(C)Nc1ccc(-c2cc(N)cc(N)c2)n(CC(=O)NCc2ccc(C(=N)N)cc2)c1=O [Example 163] | > 0.1 µM | – | – |
| N=C(N)c1c(O)c(F)c(CNC(=O)Cn2c(-c3cc(N)cc(C(F)(F)F)c3)cnc(NC3CC3)c2=O)c(F)c1F [Example 243] | > 0.1 µM | – | > 30 µM |
| CC[C@@H](C)NC(=O)c1cc(N)cc(-c2cnc(NC(C)C)c(=O)n2CC(=O)NCc2c(O)cc(C(=N)N)cc2OCC(=O)O)c1 [Example 244] | > 0.1 µM | – | > 30 µM |
| CC[C@@H](C)NC(=O)c1cc(N)cc(-c2cnc(N[C@@H](C)CO)c(=O)n2CC(=O)NCc2ccc(C(=N)N)cc2)c1 [Example 248] | < 0.1 µM | – | < 30 µM |
| CC[C@@H](C)NC(=O)c1cc(N)cc(-c2cnc(NC(C)C)c(=O)n2CC(=O)NCc2c(O)cc(C(=N)N)cc2OCc2cccnc2)c1 [Example 255] | > 0.1 µM | – | > 30 µM |
